Measurements published in ChEMBL document CHEMBL3232889, “Identification of novel SIRT2-selective inhibitors using a click chemistry approach” (Bioorg Med Chem Lett, 2014).
Calls of active or inactive are those of the source.

target: T1, NAD-dependent protein deacetylase sirtuin-1 (Homo sapiens, UniProt Q96EB6); assay: Inhibition of human recombinant SIRT1 using Fluor-de-Lys as substrate incubated for 60 mins prior to substrate addition measured after 60 mins by fluorometric analysis; details: not given
T1 sequence (Q96EB6 whole entry): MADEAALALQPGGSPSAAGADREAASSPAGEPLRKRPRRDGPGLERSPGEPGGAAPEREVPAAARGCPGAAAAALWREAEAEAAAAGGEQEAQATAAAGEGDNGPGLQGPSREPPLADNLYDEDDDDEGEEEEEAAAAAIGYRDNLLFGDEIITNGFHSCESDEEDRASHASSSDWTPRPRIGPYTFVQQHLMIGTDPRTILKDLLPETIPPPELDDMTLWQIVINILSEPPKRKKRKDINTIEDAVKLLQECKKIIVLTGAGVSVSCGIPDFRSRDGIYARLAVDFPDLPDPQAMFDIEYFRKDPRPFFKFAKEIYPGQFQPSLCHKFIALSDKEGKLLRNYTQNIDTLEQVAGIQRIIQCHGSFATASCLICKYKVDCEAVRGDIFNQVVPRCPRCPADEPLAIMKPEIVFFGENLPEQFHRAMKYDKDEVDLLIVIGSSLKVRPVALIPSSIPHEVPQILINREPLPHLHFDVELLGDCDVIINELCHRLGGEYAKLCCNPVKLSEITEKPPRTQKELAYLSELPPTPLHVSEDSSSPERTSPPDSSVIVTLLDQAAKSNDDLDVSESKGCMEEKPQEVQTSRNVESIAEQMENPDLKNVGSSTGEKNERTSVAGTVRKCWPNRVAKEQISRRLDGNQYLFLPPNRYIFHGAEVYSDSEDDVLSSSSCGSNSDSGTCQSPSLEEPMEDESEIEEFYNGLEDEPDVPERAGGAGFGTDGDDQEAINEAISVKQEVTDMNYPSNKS

Row | IC50 [µM] | SMILES
1 | > 100 | NC(=O)c1ccccc1Nc1ccc(-c2cn(Cc3ccccc3)nn2)cc1
2 | > 100 | NC(=O)c1ccccc1Nc1cccc(-c2cn(CCC3CCCC3)nn2)c1

target: T2, NAD-dependent protein deacetylase sirtuin-3, mitochondrial (Homo sapiens, UniProt Q9NTG7); assay: Inhibition of human recombinant SIRT3 using Fluor-de-Lys as substrate incubated for 60 mins prior to substrate addition measured after 60 mins by fluorometric analysis; details: not given
T2 sequence (Q9NTG7 whole entry): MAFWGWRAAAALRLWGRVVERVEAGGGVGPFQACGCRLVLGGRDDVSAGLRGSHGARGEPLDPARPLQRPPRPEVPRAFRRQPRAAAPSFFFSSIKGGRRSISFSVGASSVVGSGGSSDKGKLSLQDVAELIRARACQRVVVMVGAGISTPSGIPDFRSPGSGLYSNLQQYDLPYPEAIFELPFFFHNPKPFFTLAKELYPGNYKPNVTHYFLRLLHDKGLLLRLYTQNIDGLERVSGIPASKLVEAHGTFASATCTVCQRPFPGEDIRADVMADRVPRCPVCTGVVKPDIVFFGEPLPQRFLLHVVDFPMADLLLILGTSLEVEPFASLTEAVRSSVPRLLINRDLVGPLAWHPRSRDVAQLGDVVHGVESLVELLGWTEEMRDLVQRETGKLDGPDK

Row | IC50 [µM] | SMILES
3 | > 100 | NC(=O)c1ccccc1Nc1ccc(-c2cn(Cc3ccccc3)nn2)cc1
4 | > 100 | NC(=O)c1ccccc1Nc1cccc(-c2cn(CCC3CCCC3)nn2)c1

target: T3, NAD-dependent protein deacetylase sirtuin-2 (Homo sapiens) (UniProt Q8IXJ6); details: at 10 µM
T3 sequence (whole entry): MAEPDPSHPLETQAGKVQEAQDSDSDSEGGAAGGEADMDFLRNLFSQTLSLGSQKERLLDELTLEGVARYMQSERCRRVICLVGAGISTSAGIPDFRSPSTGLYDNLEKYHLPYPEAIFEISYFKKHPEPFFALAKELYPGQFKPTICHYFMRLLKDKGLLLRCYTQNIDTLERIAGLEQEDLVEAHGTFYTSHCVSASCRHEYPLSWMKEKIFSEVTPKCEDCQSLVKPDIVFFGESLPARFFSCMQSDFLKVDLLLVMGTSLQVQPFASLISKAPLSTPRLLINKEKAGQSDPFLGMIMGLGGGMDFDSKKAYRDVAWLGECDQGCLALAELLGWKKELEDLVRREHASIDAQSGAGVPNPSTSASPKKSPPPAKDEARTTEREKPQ
Description: Inhibition of human recombinant SIRT2 using Fluor-de-Lys as substrate at 10 uM incubated for 60 mins prior to substrate addition measured after 60 mins by fluorometric analysis

Row | SMILES | inhibition
5 | [N-]=[N+]=Nc1ccccc1-c1ccccc1 | Active
6 | [N-]=[N+]=NCCc1cccc(C(F)(F)F)c1 | Active
7 | [N-]=[N+]=Nc1ccc(N)cc1 | Active
8 | [N-]=[N+]=NCC1CCCCC1 | Active
9 | [N-]=[N+]=Nc1cccc2ccccc12 | Active
10 | [N-]=[N+]=Nc1ccc(Br)cc1 | Active
11 | [N-]=[N+]=NCCc1ccc([N+](=O)[O-])cc1 | Active
12 | Cc1ccccc1CCN=[N+]=[N-] | Active
13 | [N-]=[N+]=NCCN1CCOCC1 | Active
14 | COc1ccccc1CCN=[N+]=[N-] | Active
15 | N#C/C(=C\c1ccc(-c2cc(Cl)ccc2Cl)o1)C(=O)Nc1cccc2ncccc12 | Active
16 | Cc1ccc(CCN=[N+]=[N-])cc1 | Active
17 | [N-]=[N+]=Nc1ccc(I)cc1 | Active
18 | [N-]=[N+]=NCCc1ccc(C(F)(F)F)cc1 | Active
19 | [N-]=[N+]=NCCCc1ccccc1 | Active
20 | [N-]=[N+]=Nc1ccc(F)cc1 | Active
21 | [N-]=[N+]=NCCc1ccc2ccccc2c1 | Active
22 | Cc1ncsc1CCN=[N+]=[N-] | Active
23 | [N-]=[N+]=NC[S+]([O-])c1ccccc1 (stereo unspecified) | Active
24 | [N-]=[N+]=NCCc1ccccc1Cl | Active
25 | [N-]=[N+]=NCCc1ccccc1C(F)(F)F | Active

Row | SMILES | inhibition
26 | [N-]=[N+]=NCCCCCc1ccccc1 | Active
27 | [N-]=[N+]=NCCc1cccc2ccccc12 | Active
28 | [N-]=[N+]=NCC(=O)c1ccccc1 | Active
29 | NC(=O)c1ccccc1Nc1ccc(-c2cn(Cc3ccccc3)nn2)cc1 | Active
30 | [N-]=[N+]=NCCc1c[nH]c2ccccc12 | Active
31 | [N-]=[N+]=NCCc1cccc(Cl)c1 | Active
32 | Cc1ccc(N=[N+]=[N-])cc1 | Active
33 | [N-]=[N+]=Nc1ccc(O)cc1 | Active
34 | Cc1cccc(C)c1NC(=O)CN=[N+]=[N-] | Active
35 | [N-]=[N+]=NCC(=O)Nc1ccc(F)cc1 | Active
36 | [N-]=[N+]=NCc1ccccc1 | Active
37 | [N-]=[N+]=Nc1ccccc1 | Active
38 | [N-]=[N+]=NCc1cccc2ccccc12 | Active
39 | Cc1cccc(CCN=[N+]=[N-])c1 | Active
40 | [N-]=[N+]=NCCc1ccccn1 | Active
41 | [N-]=[N+]=NCCC1CCCCC1 | Active
42 | [N-]=[N+]=NCCc1ccsc1 | Active
43 | [N-]=[N+]=NCC12CC3CC(CC(C3)C1)C2 | Active
44 | [N-]=[N+]=NCCC12CC3CC(CC(C3)C1)C2 | Active
45 | C#Cc1cccc(Nc2ccccc2C(N)=O)c1 | Active
46 | COc1ccc(N=[N+]=[N-])cc1 | Active

Row | SMILES | inhibition
47 | [N-]=[N+]=NCCc1ccc(Cl)cc1 | Active
48 | [N-]=[N+]=NCc1cccc(-c2ccccc2)c1 | Active
49 | COc1cccc(CCN=[N+]=[N-])c1 | Active
50 | [N-]=[N+]=NCS(=O)(=O)c1ccccc1 | Active
51 | COc1ccc(CCN=[N+]=[N-])cc1 | Active
52 | NC(=O)c1ccccc1Nc1cccc(-c2cn(CCC3CCCC3)nn2)c1 | Active
53 | C#Cc1ccc(Nc2ccccc2C(N)=O)cc1 | Active
54 | [N-]=[N+]=NCCc1ccccc1[N+](=O)[O-] | Active
55 | [N-]=[N+]=NCCc1ccccc1F | Active
56 | [N-]=[N+]=NCCc1cccc(F)c1 | Active
57 | COc1ccc(CN=[N+]=[N-])cc1 | Active
58 | [N-]=[N+]=NCc1ccc2ccccc2c1 | Active
59 | [N-]=[N+]=NCCC1CCCC1 | Active
60 | [N-]=[N+]=NCCc1ccc(F)cc1 | Active
61 | [N-]=[N+]=NCc1ccc(-c2ccccc2)cc1 | Active
62 | [N-]=[N+]=N/C=C/c1ccccc1 | Active
63 | [N-]=[N+]=NCCc1ccccc1 | Active
64 | Cc1ccc(N=[N+]=[N-])cc1C | Active
65 | [N-]=[N+]=NCSc1ccccc1 | Active

target: T4, NAD-dependent protein deacetylase sirtuin-3, mitochondrial (Homo sapiens) (UniProt Q9NTG7); assay: Inhibition of human recombinant SIRT3 using Fluor-de-Lys as substrate at 10 uM incubated for 60 mins prior to substrate addition measured after 60 mins by fluorometric analysis; details: not given
T4 sequence (whole entry): T2 sequence (Q9NTG7 whole entry)

Row | inhibition | SMILES
66 | inactive | NC(=O)c1ccccc1Nc1ccc(-c2cn(Cc3ccccc3)nn2)cc1
67 | inactive | NC(=O)c1ccccc1Nc1cccc(-c2cn(CCC3CCCC3)nn2)c1

target: T5, NAD-dependent protein deacetylase sirtuin-2 (Homo sapiens, UniProt Q8IXJ6); assay: Inhibition of human recombinant SIRT2 using Fluor-de-Lys as substrate incubated for 60 mins prior to substrate addition measured after 60 mins by fluorometric analysis; details: not given
T5 sequence (Q8IXJ6 whole entry): T3 sequence (whole entry)

Row | IC50 [µM] | SMILES
68 | 6.3 | NC(=O)c1ccccc1Nc1ccc(-c2cn(Cc3ccccc3)nn2)cc1
69 | 5.3 | NC(=O)c1ccccc1Nc1cccc(-c2cn(CCC3CCCC3)nn2)c1

target: T6, NAD-dependent protein deacetylase sirtuin-1 (Homo sapiens) (UniProt Q96EB6); assay: Inhibition of human recombinant SIRT1 using Fluor-de-Lys as substrate at 10 uM incubated for 60 mins prior to substrate addition measured after 60 mins by fluorometric analysis; details: not given
T6 sequence (whole entry): T1 sequence (Q96EB6 whole entry)

Row | inhibition | SMILES
70 | inactive | NC(=O)c1ccccc1Nc1ccc(-c2cn(Cc3ccccc3)nn2)cc1
71 | inactive | NC(=O)c1ccccc1Nc1cccc(-c2cn(CCC3CCCC3)nn2)c1
